# Data as given in patent US9562085B2, “Antimicrobial peptide” (priority 2013, dated 2017).
# Non-standard residues stand in square brackets, D forms with d. Residues, ends and D or L forms follow the SMILES beside them. *: point of attachment. X2 = NC(=O)OCCOCCOCCOCCOCCOCCOCCOCCOCCOCCOCCN*; Decanoyl = CCCCCCCCCC(=O)*
# Tested on: S. aureus JAR
# Format: cell-based
# Details: JAR, 2 h
# Protocol: S. aureus JAR is described in Campoccia et al. (Int. J. Artif. Organs, 2008 September; 31(9):841-7).
# For the in vitro killing assay with P10 variants, S. aureus JAR ([…] CFU/ml) were incubated for 2 hours at 37° C. with various concentrations of the peptides in PBS or in PBS/human plasma (1/1, v/v). […] The LC99.9 is the average value of two independent experiments.
Molecule,LC99.9 (μM) (50% plasma) [µM],LC99.9 (μM) (PBS) [µM]
"CC[C@H](C)[C@H](NC(=O)[C@H](CCCCN)NC(=O)[C@@H](CCCCN)NC(=O)[C@H](Cc1ccc(O)cc1)NC(=O)[C@H](CCC(=O)O)NC(=O)[C@H](CCCNC(=N)N)NC(=O)[C@H](C)NC(=O)[C@H](CC(C)C)NC(C)=O)C(=O)N[C@H](C(=O)N[C@@H](CCC(=O)O)C(=O)N[C@@H](CCCCN)C(=O)N[C@@H](CC(C)C)C(=O)N[C@@H](CCCCN)C(=O)N[C@@H](CCCNC(=N)N)C(=O)N[C@@H](Cc1c[nH]c2ccccc12)C(=O)N[C@@H](CC(C)C)C(=O)N[C@@H](CCCNC(=N)N)C(=O)N[C@@H](CCC(N)=O)C(=O)N[C@H](C(=O)N[C@@H](CC(C)C)C(=O)N[C@@H](CCCNC(=N)N)C(=O)N[C@H](C(=O)N[C@@H](CC(C)C)C(=O)N[C@@H](CCCNC(=N)N)C(N)=O)[C@@H](C)O)C(C)C)C(C)C [Peptide 1301-6, JLAREYkKIVEKLKRWLRQVLRTLRB] (Ac-LAREY[dK]KIVEKLKRWLRQVLRTLR-NH2)",38.4,0.6
"CC[C@H](C)[C@H](NC(=O)[C@H](CCCCN)NC(=O)[C@H](CCCCN)NC(=O)[C@H](Cc1ccc(O)cc1)NC(=O)[C@H](CCC(=O)O)NC(=O)[C@H](CCCNC(=N)N)NC(=O)[C@@H](C)NC(=O)[C@H](CC(C)C)NC(C)=O)C(=O)N[C@H](C(=O)N[C@@H](CCC(=O)O)C(=O)N[C@@H](CCCCN)C(=O)N[C@@H](CC(C)C)C(=O)N[C@@H](CCCCN)C(=O)N[C@@H](CCCNC(=N)N)C(=O)N[C@@H](Cc1c[nH]c2ccccc12)C(=O)N[C@@H](CC(C)C)C(=O)N[C@@H](CCCNC(=N)N)C(=O)N[C@@H](CCC(N)=O)C(=O)N[C@H](C(=O)N[C@@H](CC(C)C)C(=O)N[C@@H](CCCNC(=N)N)C(=O)N[C@H](C(=O)N[C@@H](CC(C)C)C(=O)N[C@@H](CCCNC(=N)N)C(N)=O)[C@@H](C)O)C(C)C)C(C)C [Peptide 1301-2, JLaREYKKIVEKLKRWLRQVLRTLRB] (Ac-L[dA]REYKKIVEKLKRWLRQVLRTLR-NH2)",38.4,0.6
"CCCCCCCCCC(=O)N[C@@H](CC(C)C)C(=O)N[C@@H](C)C(=O)N[C@@H](CCCNC(=N)N)C(=O)N[C@@H](CCC(=O)O)C(=O)N[C@@H](Cc1ccc(O)cc1)C(=O)N[C@@H](CCCCN)C(=O)N[C@@H](CCCCN)C(=O)N[C@H](C(=O)N[C@H](C(=O)N[C@@H](CCC(=O)O)C(=O)N[C@@H](CCCCN)C(=O)N[C@@H](CC(C)C)C(=O)N[C@@H](CCCCN)C(=O)N[C@@H](CCCNC(=N)N)C(=O)N[C@@H](Cc1c[nH]c2ccccc12)C(=O)N[C@@H](CC(C)C)C(=O)N[C@@H](CCCNC(=N)N)C(=O)N[C@@H](CCC(N)=O)C(=O)N[C@H](C(=O)N[C@@H](CC(C)C)C(=O)N[C@@H](CCCNC(=N)N)C(=O)N[C@H](C(=O)N[C@@H](CC(C)C)C(=O)N[C@@H](CCCNC(=N)N)C(N)=O)[C@@H](C)O)C(C)C)C(C)C)[C@@H](C)CC [Peptide 1302-9, jLAREYKKIVEKLKRWLRQVLRTLRB] (Decanoyl-LAREYKKIVEKLKRWLRQVLRTLR-NH2)",>102.4,1.6
"CC[C@H](C)[C@H](NC(=O)[C@H](CCCCN)NC(=O)[C@H](CCCCN)NC(=O)[C@H](Cc1ccc(O)cc1)NC(=O)[C@H](CCC(=O)O)NC(=O)[C@H](CCCNC(=N)N)NC(=O)[C@H](C)NC(=O)[C@H](CC(C)C)NC(C)=O)C(=O)N[C@H](C(=O)N[C@@H](CCC(=O)O)C(=O)N[C@@H](CCCCN)C(=O)N[C@@H](CC(C)C)C(=O)N[C@@H](CCCCN)C(=O)N[C@@H](CCCNC(=N)N)C(=O)N[C@@H](Cc1c[nH]c2ccccc12)C(=O)N[C@@H](CC(C)C)C(=O)N[C@@H](CCCNC(=N)N)C(=O)N[C@@H](CCC(N)=O)C(=O)N[C@H](C(=O)N[C@H](CC(C)C)C(=O)N[C@@H](CCCNC(=N)N)C(=O)N[C@H](C(=O)N[C@@H](CC(C)C)C(=O)N[C@@H](CCCNC(=N)N)C(N)=O)[C@@H](C)O)C(C)C)C(C)C [Peptide 1301-20, JLAREYKKIVEKLKRWLRQVlRTLRB] (Ac-LAREYKKIVEKLKRWLRQV[dL]RTLR-NH2)",38.4,0.6
"Ac-LAREYKKIVEKLKRWLHQVLRTLR-NH2 [Peptide 1302-41, JLAREYKKIVEKLKRWLHQVLRTLRB]",102.4,1.6
"CC[C@H](C)[C@H](NC(=O)[C@H](CCCCN)NC(=O)[C@H](CCCCN)NC(=O)[C@H](Cc1ccc(O)cc1)NC(=O)[C@H](CCC(=O)O)NC(=O)[C@H](CCCNC(=N)N)NC(=O)[C@H](C)NC(=O)[C@H](CC(C)C)NC(C)=O)C(=O)N[C@H](C(=O)N[C@@H](CCC(=O)O)C(=O)N[C@@H](CCCCN)C(=O)N[C@@H](CC(C)C)C(=O)N[C@@H](CCCCN)C(=O)N[C@@H](CCCNC(=N)N)C(=O)N[C@@H](Cc1c[nH]c2ccccc12)C(=O)N[C@@H](CC(C)C)C(=O)N[C@@H](CCCNC(=N)N)C(=O)N[C@@H](CCC(N)=O)C(=O)N[C@H](C(=O)N[C@@H](CC(C)C)C(=O)N[C@@H](CCCNC(=N)N)C(=O)N[C@H](C(=O)N[C@@H](CC(C)C)C(=O)N[C@@H](CCCNC(=N)N)C(=O)NCCOCCOCCOCCOCCOCCOCCOCCOCCOCCOCCOC(N)=O)[C@@H](C)O)C(C)C)C(C)C [Peptide 1302-5, JLAREYKKIVEKLKRWLRQVLRTLRoB] (Ac-LAREYKKIVEKLKRWLRQVLRTLR-X2)",102.4,0.8
"Ac-LAREYKKIVEKLKRWLRQVLRQLR-NH2 [Peptide 1302-52, JLAREYKKIVEKLKRWLRQVLRQLRB]",76.8,1.6
"CC[C@H](C)[C@H](NC(=O)[C@H](CCCCN)NC(=O)[C@H](CCCCN)NC(=O)[C@H](Cc1ccc(O)cc1)NC(=O)[C@H](CCC(=O)O)NC(=O)[C@H](CCCNC(=N)N)NC(=O)[C@H](C)NC(=O)[C@H](CC(C)C)NC(C)=O)C(=O)N[C@H](C(=O)N[C@@H](CCC(=O)O)C(=O)N[C@@H](CCCCN)C(=O)N[C@@H](CC(C)C)C(=O)N[C@@H](CCCCN)C(=O)N[C@@H](CCCNC(=N)N)C(=O)N[C@@H](Cc1c[nH]c2ccccc12)C(=O)N[C@@H](CC(C)C)C(=O)N[C@@H](CCCNC(=N)N)C(=O)N[C@@H](CCC(N)=O)C(=O)N[C@H](C(=O)N[C@@H](CC(C)C)C(=O)N[C@@H](CCCNC(=N)N)C(=O)N[C@@H](C(=O)N[C@@H](CC(C)C)C(=O)N[C@@H](CCCNC(=N)N)C(N)=O)[C@H](C)O)C(C)C)C(C)C [Peptide 1301-22, JLAREYKKIVEKLKRWLRQVLRtLRB] (Ac-LAREYKKIVEKLKRWLRQVLR[dT]LR-NH2)",38.4,0.6
"Ac-YKKIVEKLKRWLRQVL-NH2 [Peptide 1302-62, JYKKIVEKLKRWLRQVLB]",76.8,1.6
"Ac-LAREYKKIVEKLKHWLRQVLRTLR-NH2 [Peptide 1302-39, JLAREYKKIVEKLKHWLRQVLRTLRB]",102.4,3.2
"Ac-LAREYKKIVEKLKRWLRTVLRTLR-NH2 [Peptide 1302-45, JLAREYKKIVEKLKRWLRTVLRTLRB]",76.8,1.6
"Ac-LAHEYKKIVEKLKRWLRQVLRTLR-NH2 [Peptide 1302-24, JLAHEYKKIVEKLKRWLRQVLRTLRB]",102.4,1.6
"Ac-LAREYKKIVEKLKRWLRQLLRTLR-NH2 [Peptide 1302-46, JLAREYKKIVEKLKRWLRQLLRTLRB]",102.4,1.6
"Ac-LAREYKKIVEKLKRWLRQVLRT-NH2 [Peptide 1302-57, JLAREYKKIVEKLKRWLRQVLRTB]",51.2,1.6
"CC[C@H](C)[C@H](NC(=O)[C@H](CCCCN)NC(=O)[C@H](CCCCN)NC(=O)[C@H](Cc1ccc(O)cc1)NC(=O)[C@H](CCC(=O)O)NC(=O)[C@H](CCCNC(=N)N)NC(=O)[C@H](C)NC(=O)[C@H](CC(C)C)NC(C)=O)C(=O)N[C@H](C(=O)N[C@@H](CCC(=O)O)C(=O)N[C@@H](CCCCN)C(=O)N[C@@H](CC(C)C)C(=O)N[C@@H](CCCCN)C(=O)N[C@H](CCCNC(=N)N)C(=O)N[C@@H](Cc1c[nH]c2ccccc12)C(=O)N[C@@H](CC(C)C)C(=O)N[C@@H](CCCNC(=N)N)C(=O)N[C@@H](CCC(N)=O)C(=O)N[C@H](C(=O)N[C@@H](CC(C)C)C(=O)N[C@@H](CCCNC(=N)N)C(=O)N[C@H](C(=O)N[C@@H](CC(C)C)C(=O)N[C@@H](CCCNC(=N)N)C(N)=O)[C@@H](C)O)C(C)C)C(C)C [Peptide 1301-14, JLAREYKKIVEKLKrWLRQVLRTLRB] (Ac-LAREYKKIVEKLK[dR]WLRQVLRTLR-NH2)",38.4,0.6
"Ac-LAREYKKIVEKLKKWLRQVLRTLR-NH2 [Peptide 1302-38, JLAREYKKIVEKLKKWLRQVLRTLRB]",102.4,2.4
"Ac-REYKKIVEKLKRWLRQVLRTLR-NH2 [Peptide 1302-56, JREYKKIVEKLKRWLRQVLRTLRB]",51.2,1.6
"CC[C@H](C)[C@H](NC(=O)[C@H](CCCCN)NC(=O)[C@H](CCCCN)NC(=O)[C@H](Cc1ccc(O)cc1)NC(=O)[C@H](CCC(=O)O)NC(=O)[C@H](CCCNC(=N)N)NC(=O)[C@H](C)NC(=O)[C@H](CC(C)C)NC(C)=O)C(=O)N[C@H](C(=O)N[C@@H](CCC(=O)O)C(=O)N[C@@H](CCCCN)C(=O)N[C@@H](CC(C)C)C(=O)N[C@H](CCCCN)C(=O)N[C@@H](CCCNC(=N)N)C(=O)N[C@@H](Cc1c[nH]c2ccccc12)C(=O)N[C@@H](CC(C)C)C(=O)N[C@@H](CCCNC(=N)N)C(=O)N[C@@H](CCC(N)=O)C(=O)N[C@H](C(=O)N[C@@H](CC(C)C)C(=O)N[C@@H](CCCNC(=N)N)C(=O)N[C@H](C(=O)N[C@@H](CC(C)C)C(=O)N[C@@H](CCCNC(=N)N)C(N)=O)[C@@H](C)O)C(C)C)C(C)C [Peptide 1301-13, JLAREYKKIVEKLkRWLRQVLRTLRB] (Ac-LAREYKKIVEKL[dK]RWLRQVLRTLR-NH2)",38.4,0.6
"Ac-LAREYKRIVEKLKRWLRQVLRTLR-NH2 [Peptide 1302-29, JLAREYKRIVEKLKRWLRQVLRTLRB]",102.4,1.6
